Measurements: patent publication US20240199651A1, “ANTIBACTERIAL COMPOUNDS” (JANSSEN SCIENCES IRELAND UNLIMITED COMPANY, priority 2021, published 2024)
Where two headings read alike, the source gives them in different places.

Experiments:
[1] = Mitochondrial toxicity (Glu/Gal) assay; assay type: cell-based; settings: for Score: mitotoxicity score, Glu/Gal assay; for Δ IC50, glu/IC50, gal: ratio IC50 glu / IC50 gal
Description: The compounds of the invention/examples may have advantages associated with in vitro potency, kill kinetics (i.e. bactericidal effect) in vitro, PK properties, food effect, safety/toxicity (including liver toxicity, coagulation, 5-LO oxygenase), metabolic stability, Ames II negativity, MNT negativity, aqueous based solubility (and ability to formulate) and/or cardiovascular effect e.g. on animals (e.g. anesthetized guinea pig). Data that is generated/calculated may be obtained using standard methods/assays, for instance that are available in the literature or which may be performed by a supplier (e.g. Microsomal Stability Assay—Cyprotex, Mitochondrial toxicity (Glu/Gal) assay—Cyprotex, as well as literature CYP cocktail inhibition assays). GSH can be measured (reactive metabolites, glucuronidation) to observe if a dihydrodiol is observed by LCMS (fragmentation ions), which would correspond to a dihydroxylation on the core heterocycle.

[2] = tested on: Mycobacterium tuberculosis strain EH4.0 expressing green-fluorescent protein (GFP); test: microbe, parasite or virus in culture; assay type: cell-based; settings: Test 1 (and/or Test 2); M. tuberculosis
[3] = Chemical stability testing (LCMS); assay type: physicochemical; settings: 30 µM
Description: • Add 3 μl of a 10 mM DMSO stock solution to 1 ml of the following solvents in a 1.5 ml HPLC vial. • DMSO (reference solution) • H2O/Acetonitril 1/1 (assay solution) • 0.1N HCl/Acetonitril 1/1 (assay solution) • Mix well, […] LCMS • Compare the chromatograms of the two assay solutions with the reference solution and report the additional peaks as degradation peaks

[4] = galactose medium (Glu/Gal mitotoxicity assay), read-out: IC50, gal
[5] = glucose medium (Glu/Gal mitotoxicity assay), read-out: IC50, glu

| Compound | IC50 [1, 4] [µM] | IC50 [1, 5] [µM] | IC50 ([1]; read-out: IC50, gal) [µM] | IC50 ([1]; read-out: IC50, glu) [µM] | other results |
| --- | --- | --- | --- | --- | --- |
| CCc1nc2ncc(Cl)cn2c1C(=O)NCc1ccc(-c2nc3n(n2)CCN(S(=O)(=O)C(F)(F)F)C3)c(F)c1 [Compound 4] | > 100 | > 100 |  |  | pIC50 [2]: 7.90 |
| O=C(NCc1ccc(-c2nc3n(n2)CCN(S(=O)(=O)C(F)(F)F)C3)c(F)c1)c1c(C(F)(F)F)nc2ccccn12 [Compound 6] |  |  | 134 | 88.5 | chemical stability, % by LCMS ([3]; 48 h): 100%; chemical stability, % by LCMS ([3]; 48 h, pH 1.6): 100%; Score [1]: [x]1; Δ IC50, glu/IC50, gal [1]: 0.66 |
| CCc1nc2nc(C)c(Cl)cn2c1C(=O)NCc1ccc(-c2nc3n(n2)CCN(S(=O)(=O)C(F)(F)F)C3)cc1 [Compound 8] | 41.7 | 51.2 |  |  | Score [1]: [x]1; Δ IC50, glu/IC50, gal [1]: 1.23; pIC50 [2]: 7.58 |
| CCc1nc2cc(OC)c(Cl)cn2c1C(=O)NCc1ccc(-c2nc3n(n2)CCN(S(=O)(=O)C(F)(F)F)C3)c(F)c1 [Compound 10] |  |  | > 200 | > 200 | chemical stability, % by LCMS ([3]; 72 h): 97.03%; chemical stability, % by LCMS ([3]; 72 h, pH 1.6): 100% |
| CCc1nc2nc(N)c(Cl)cn2c1C(=O)NCc1ccc(-c2nc3n(n2)CCN(S(=O)(=O)C(F)(F)F)C3)c(F)c1 [Compound 12] |  |  |  |  | chemical stability, % by LCMS ([3]; 72 h): 96.14%; chemical stability, % by LCMS ([3]; 72 h, pH 1.6): 97.06% |
| CCc1nc2cc(N)c(Cl)cn2c1C(=O)NCc1ccc(-c2nc3n(n2)CCN(S(=O)(=O)C(F)(F)F)C3)c(F)c1 [Compound 14] |  |  |  |  | chemical stability, % by LCMS ([3]; 72 h): 100%; chemical stability, % by LCMS ([3]; 72 h, pH 1.6): 100% |
| CCc1nc2ncc(C)cn2c1C(=O)NCc1ccc(N2CCN(c3nc4n(n3)CCN(S(=O)(=O)C(F)(F)F)C4)CC2)cc1 [Compound 70] |  |  | > 50 | > 50 |  |
| CCc1nc2ncc(C)cn2c1C(=O)NCc1csc(-c2nc3n(n2)CCN(S(=O)(=O)C(F)(F)F)C3)n1 [Compound 73] |  |  | > 200 | > 200 |  |
| CCc1nc2ncc(C)cn2c1C(=O)NCc1nc(-c2nc3n(n2)CCN(S(=O)(=O)C(F)(F)F)C3)cs1 [Compound 75] |  |  | > 200 | > 200 |  |
| CCc1nc2ncc(C)cn2c1C(=O)NCc1nnc(-c2nc3n(n2)CCN(S(=O)(=O)C(F)(F)F)C3)s1 [Compound 76] |  |  | > 200 | > 200 |  |
| CCc1nc2ncc(Cl)cn2c1C(=O)NCc1cnc(-c2nc3n(n2)CCN(S(=O)(=O)C(F)(F)F)C3)c(F)c1 [Compound 77] |  |  | > 200 | > 200 |  |
| CCc1nc2cc(N)c(Cl)cn2c1C(=O)NCc1cnc(-c2nc3n(n2)CCN(S(=O)(=O)C(F)(F)F)C3)c(F)c1 [Compound 78] |  |  | > 200 | > 200 |  |
| CCc1nc2ncc(C)cn2c1C(=O)NC(C)(C)c1ccc(-c2nc3n(n2)CCN(S(=O)(=O)C(F)(F)F)C3)cc1 [Compound 83] |  |  | 127 | 142 | Score [1]: [x]1; Δ IC50, glu/IC50, gal [1]: 1.12 |
| CCc1nc2ncc(C)cn2c1C(=O)NCc1ccc(-c2nn3c(c2OC)CN(S(=O)(=O)C(F)(F)F)CC3)cc1 [Compound 88] |  |  |  |  | AC50 [2]: 0.00866 µM |
| CCc1nc2ncc(C)cn2c1C(=O)NCc1ccc(-c2cn3c(n2)CN(S(=O)(=O)C(F)(F)F)CC3)cc1 [Compound 89] | > 200 | > 200 |  |  |  |
| CCc1nc2ncc(Cl)cn2c1C(=O)NCc1ccc(-c2cn3c(n2)CN(S(=O)(=O)C(F)(F)F)CC3)cc1 [Compound 90] | > 200 | > 200 |  |  |  |
| CCc1nc2ncc(Cl)cn2c1C(=O)NCc1ccc(-c2cc3n(n2)CCN(S(=O)(=O)C(F)(F)F)C3)cc1 [Compound 91] |  |  | 15.6 | > 200 | Score [1]: [x]3; Δ IC50, glu/IC50, gal [1]: >12.85 |
| Cc1cnc2nc(C3CC3)c(C(=O)NCc3ccc(-c4cc5n(n4)CCN(S(=O)(=O)C(F)(F)F)C5)cc3)n2c1 [Compound 93] | > 200 | > 200 |  |  |  |
| CCc1nc2ncc(C)cn2c1C(=O)NCc1cccc(Cc2cc3n(n2)CCN(S(=O)(=O)C(F)(F)F)C3)c1 [Compound 95] |  |  | 117 | > 200 | Score [1]: [x]1; Δ IC50, glu/IC50, gal [1]: >1.7 |
| CC(=O)N1CCn2nc(-c3ccc(CNC(=O)c4c(C5CC5)nc5ncc(C)cn45)cc3)cc2C1 [Compound 96] | > 200 | > 200 |  |  |  |
| Cc1cnc2nc(C3CC3)c(C(=O)NCc3ccc(-c4nc5n(n4)CCN(S(=O)(=O)C(F)(F)F)C5)c(F)c3)n2c1 [Compound 97] | > 25 | > 25 |  |  |  |
